US10800772B2 (Gilead Sciences, Inc., priority 2016, dated 2020)

Key:
Type in all cases: cell-based, HIV-1
HIV-IIIb IN T174I DE = assay: Antiviral assay in MT4 cells, HIV-IIIb IN T174I DE virus (from dose escalation passaging); settings: Human immunodeficiency virus 1, IIIB, MT4, 120 h, read-out: T174I DE EC50, MT4 cells, HIV-IIIb IN T174I DE (dose escalation), 5 days, CellTiter-Glo
Procedure, shortened: (§1)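 Luminescence from CellTiter-Glo after a 5-day culture served as the measure of HIV-1 replication in MT4 cells. Cells were infected beforehand for 3 h with HIV-IIIb (0.004 m.o.i.) and exposed to ten 3-fold compound dilutions. EC50 corresponds to a 50% signal decrease.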

HIV-IIIb (wildtype) = assay: Antiviral assay in MT4 cells, HIV-IIIb wildtype; settings: Human immunodeficiency virus 1, IIIB, MT4, 120 h, read-out: WT EC50
Procedure, shortened: as §1

HIV-IIIb IN T174I BT = assay: Antiviral assay in MT4 cells, HIV-IIIb IN T174I BT virus (from viral breakthrough); settings: Human immunodeficiency virus 1, IIIB, MT4, 120 h, read-out: T174I BT EC50, MT4 cells, HIV-IIIb IN T174I BT (viral breakthrough), 5 days, CellTiter-Glo
Procedure, shortened: as §1

Row | SMILES | EC50 (HIV-IIIb IN T174I DE) [nM] | EC50 (HIV-IIIb (wildtype)) [nM] | EC50 (HIV-IIIb IN T174I BT) [nM]
1 | COC(=O)N1CC(N2CCC(c3nn(C)c4ccc(-c5nc6cc(C)c([C@H](OC(C)(C)C)C(=O)O)c(-c7ccc(Cl)cc7)c6s5)nc34)CC2)C1 [Compound 167, (S)-2-(tert-butoxy)-2-(7-(4-chloro-phenyl)-2-(3-(1-(1-(methoxycarbonyl)azetidin-3-yl)piperidin-4-yl)-1-methyl-1H-pyrazolo[4,3-b]pyridin-5-yl)-5-methylbenzo[d]thiazol-6-yl) acetic acid] | 138 | 3 | 57
2 | Cc1cc2nc(-c3ccc4c(n3)c(C3CCN(C5CN(C(=O)OC(C)C)C5)CC3)nn4C)sc2c(-c2ccc(Cl)cc2)c1[C@H](OC(C)(C)C)C(=O)O [Compound 168, (S)-2-(tert-butoxy)-2-(7-(4-chloro-phenyl)-2-(3-(1-(1-(isopropoxy-carbonyl)azetidin-3-yl)piperidin-4-yl)-1-methyl-1H-pyrazolo[4,3-b]pyridin-5-yl)-5-methylbenzo[d]thiazol-6-yl) acetic acid] | 456 | 11 | 230
3 | Cc1cc2nc(-c3ccc4c(n3)c(C3CCN([C@@H]5CCN(C)C5)CC3)nn4C)sc2c(-c2ccc(Cl)cc2)c1[C@H](OC(C)(C)C)C(=O)O [Compound 171, (S)-2-(tert-butoxy)-2-(7-(4-chloro-phenyl)-5-methyl-2-(1-methyl-3-(1-((R)-1-methyl-pyrrolidin-3-yl)piperidin-4-yl)-1H-pyrazolo[4,3-b]pyridin-5-yl)benzo[d]thiazol-6-yl)acetic acid] | 239 | 5 | 98
4 | Cc1cc2nc(-c3ccc4[nH]nc(C5CCN(C6COC6)CC5)c4n3)sc2c(-c2ccc(Cl)cc2)c1[C@H](OC(C)(C)C)C(=O)O [Compound 174, (S)-2-(tert-butoxy)-2-(7-(4-chloro-phenyl)-5-methyl-2-(3-(1-(oxetan-3-yl)piperidin-4-yl)-1H-pyrazolo [4,3-b]pyridin-5-yl)benzo[d]thiazol-6-yl)acetic acid] | 587 | 11 | 219
5 | [2H]C([2H])([2H])n1nc(C2CCN(C3COC3)CC2)c2nc(-c3nc4cc(C)c([C@H](OC(C)(C)C)C(=O)O)c(-c5ccc(Cl)cc5)c4s3)ccc21 [Compound 176, (S)-2-(tert-butoxy)-2-(7-(4-chloro-phenyl)-5-methyl-2-(1-(methyl-d3)-3-(1-(oxetan-3-yl)piperidin-4-yl)-1H-pyrazolo[4,3-b]pyridin-5-yl)benzo[d]thiazol-6-yl)acetic acid] | 214 | 3 | 85
6 | CCn1nc(C2CCN(C3COC3)CC2)c2nc(-c3nc4cc(C)c([C@H](OC(C)(C)C)C(=O)O)c(-c5ccc(Cl)cc5)c4s3)ccc21 [Compound 177, (S)-2-(tert-butoxy)-2-(7-(4-chloro-phenyl)-2-(1-ethyl-3-(1-(oxetan-3-yl)piperidin-4-yl)-1H-pyrazolo[4,3-b]pyridin-5-yl)-5-methylbenzo[d]thiazol-6-yl) acetic acid] | 185 | 3 | 47
7 | Cc1cc2nc(-c3ccc4c(n3)c(C3CCN(C5COC5)CC3)nn4C3CC3)sc2c(-c2ccc(Cl)cc2)c1[C@H](OC(C)(C)C)C(=O)O [Compound 178, (S)-2-(tert-butoxy)-2-(7-(4-chloro-phenyl)-2-(1-cyclo-propyl-3-(1-(oxetan-3-yl)piperidin-4-yl)-1H-pyrazolo[4,3-b]pyridin-5-yl)-5-methylbenzo[d]thiazol-6-yl) acetic acid] | 317 | 4 | 121
8 | CCn1nc(C2CCN(C3CN(C(=O)OC)C3)CC2)c2nc(-c3nc4cc(C)c([C@H](OC(C)(C)C)C(=O)O)c(-c5ccc(Cl)cc5)c4s3)ccc21 [Compound 179, (S)-2-(tert-butoxy)-2-(7-(4-chloro-phenyl)-2-(1-ethyl-3-(1-(1-(methoxy-carbonyl)azetidin-3-yl)piperidin-4-yl)-1H-pyrazolo [4,3-b]pyridin-5-yl)-5-methylbenzo [d]thiazol-6-yl) acetic acid] | 108 | 3 | 28
9 | COC(=O)N1CC(N2CCC(c3nn(C4CC4)c4ccc(-c5nc6cc(C)c([C@H](OC(C)(C)C)C(=O)O)c(-c7ccc(Cl)cc7)c6s5)nc34)CC2)C1 [Compound 180, (S)-2-(tert-butoxy)-2-(7-(4-chloro-phenyl)-2-(1-cyclopropyl-3-(1-(1-(methoxy-carbonyl)azetidin-3-yl)piperidin-4-yl)-1H-pyrazolo [4,3-b]pyridin-5-yl)-5-methylbenzo [d]thiazol-6-yl) acetic acid] | 212 | 4 | 64
10 | CCn1nc(C2CCN(C3CN(C(C)=O)C3)CC2)c2nc(-c3nc4cc(C)c([C@H](OC(C)(C)C)C(=O)O)c(-c5ccc(Cl)cc5)c4s3)ccc21 [Compound 181, (S)-2-(2-(3-(1-(1-acetylazetidin-3-yl)piperidin-4-yl)-1-ethyl-1H-pyrazolo[4,3-b]pyridin-5-yl)-7-(4-chlorophenyl)-5-methylbenzo [d]thiazol-6-yl)-2-(tert-butoxy) acetic acid] | 34 | 1 | 12
11 | CC(=O)N1CC(N2CCC(c3nn(C4CC4)c4ccc(-c5nc6cc(C)c([C@H](OC(C)(C)C)C(=O)O)c(-c7ccc(Cl)cc7)c6s5)nc34)CC2)C1 [Compound 182, (S)-2-(2-(3-(1-(1-acetylazetidin-3-yl)piperidin-4-yl)-1-cyclopropyl-1H-pyrazolo[4,3-b]pyridin-5-yl)-7-(4-chlorophenyl)-5-methylbenzo [d]thiazol-6-yl)-2-(tert-butoxy) acetic acid] | 59 | 2 | 27
12 | CC(=O)N1CC(N2CCC(c3nn(C(F)F)c4ccc(-c5nc6cc(C)c([C@H](OC(C)(C)C)C(=O)O)c(-c7ccc(Cl)cc7)c6s5)nc34)CC2)C1 [Compound 183, (S)-2-(2-(3-(1-(1-acetylazetidin-3-yl)piperidin-4-yl)-1-(difluoromethyl)-1H-pyrazolo [4,3-b]pyridin-5-yl)-7-(4-chloro-phenyl)-5-methylbenzo[d]thiazol-6-yl)-2-(tert-butoxy) acetic acid] | 69 | 2 | 29
13 | Cc1cc2nc(-c3ccc4c(n3)c(C3CCN([C@H]5C[C@H](O)C5)CC3)nn4C)sc2c(-c2ccc(Cl)cc2)c1[C@H](OC(C)(C)C)C(=O)O [Compound 186, (S)-2-(tert-butoxy)-2-(7-(4-chloro-phenyl)-2-(3-(1-((1r,3r)-3-hydroxy-cyclobutyl)piperidin-4-yl)-1-methyl-1H-pyrazolo[4,3-b]pyridin-5-yl)-5-methylbenzo[d]thiazol-6-yl) acetic acid] | 784 | 29 | 367
14 | Cc1cc2nc(-c3ccc4c(n3)c(C3CCN(C5CC5)CC3)nn4C)sc2c(-c2ccc(Cl)cc2)c1[C@H](OC(C)(C)C)C(=O)O [Compound 187, (S)-2-(tert-butoxy)-2-(7-(4-chloro-phenyl)-2-(3-(1-cyclopropyl-piperidin-4-yl)-1-methyl-1H-pyrazolo[4,3-b]pyridin-5-yl)-5-methylbenzo[d]thiazol-6-yl) acetic acid] | 844 | 4 | 339
